Measurements: patent publication EP1207886B1, “SPHINGOMYELINASE INHIBITORS AS AGENTS WITH ANTIAPOPTOTIC AND ANTISEPTIC ACTION” (Biofrontera Pharmaceuticals GmbH, priority 1999, dated 2000)

Legend:
Assay type in all cases: cell-based, Menschliche
Mφ [1] = test: Cell culture and apoptosis test (counting YOPRO-1-stained apoptotic cells); conditions: differentiated Mφ pretreated 30 min with compound, then mmLDL or TNF α (3 ng/ml); YOPRO-1 count after four hours; read-out: Apoptose (IC-50)
Source text: LDL wurde von gesunden, freiwilligen Testpersonen durch sequentielle Flotation in einer Ultrazentrifuge bei vorbestimmten Dichten erhalten, wie in Havel et al. (J. Clin. Invest. 34, 3145 (1955)) bzw. Deigner et al. (Arzneim.-Forsch./Drug Res. 44, 956, (1994)) beschrieben. Für den Apoptose-Test wurde LDL durch Dialyse gegen Tris-HCl-Puffer, der 20 µMol FeCl3 enthielt, für 48 Stunden minimal modifiziert (mmLDL), wie von Watson et al. (J. Clin. Invest. 95, 774 (1995) beschrieben.
Menschliche, mononucleäre, periphere Blutzellen aus venösem Blut wurden isoliert, gezüchtet und, wie in Kinscherf et al. (The FASEB J. 11, 1317 (1997); The FASEB J. 12, 461 (1998)) beschrieben, bis zum Differenzieren zu Mφ belassen. Differenzierte Mφ wurden mit Lipoproteinmangelserum (P>1,21, durch Ultrazentrifugieren von fötalem Kälberserum hergestellt, wie in Havel et al. beschrieben) für 24 Stunden vor der Testdurchführung gezüchtet, mit der entsprechenden Verbindung für 30 Minuten bei den angeführten Konzentrationen vorbehandelt und anschließlich mLDL oder rekombinantem TNF α (3 ng/ml) in dem gleichen Medium ausgesetzt. Die Bestimmung der Apoptose wurde durch Zählen von YOPRO-1-gefärbten apoptotischen Zellen, wie in Idziorek et al. (J. Immunol. Methods 185, 249 (1995)) beschrieben, nach vier Stunden durchgeführt.

aSMase = test: RT-PCR of aSMase expression in Mφ; conditions: for mmLDL- oder Ceramid-induzierte Enzyminduktion: Mφ
Experimental: Fig. 5 zeigt die RT-PCR von aSMase in Mφ. Es zeigt sich eine Expression von aSMase (687 bp) nach Inkubation (4 h) von Mφ mit steigenden mmLDL-Konzentrationen.
(§1) Fig. 6 zeigt die Wirkung einer Vorbehandlung von Mφ mit einer Zusammensetzung die [3-(Carbazol-9-yl)-N-propyl]-[2-(4-methoxyphenyl)-ethyl]-methylamin (V6) enthält (2 µM, 30 min), auf die aSMase-Expression und die Apoptose in Mφ (Prozentanteil von apoptotischen Mφ, bestimmt durch YOPRO-1-Färbung nach Inkubation mit Medium oder C6-Ceramid (10 µM) mit oder ohne Vorbehandlung mit der Verbindung V6; Daten sind als Mittelwert ± SEM von drei Experimenten angegeben. *, P ≤ 0,05 vs. Kontrolle oder #, P ≤ 0,05 vs. mit C6-Ceramid behandelten Zellen (120 min)).
(§2) Menschliche, mononucleäre, periphere Blutzellen aus venösem Blut wurden mittels Ficoll-Paque (Sigma, Deisenhofen, BR Deutschland) Dichtegradientenzentrifugierung isoliert. Mφ wurden mmLDL (27 µg/ml), C6-Ceramid (10 µM) bzw. H2O2 (30 µM) unterworfen. Apoptotische Zellen wurden mittels YOPRO-1-Färbung (s. Idziorek et al, J. Immunol. Methods, 185, 1995, 249-258) und/oder mittels TUNEL-Technik (Quantum Appligene, Heidelberg, BR Deutschland) identifiziert. Die Bestimmung der Apoptose (Prozentanteil apoptotischer Zellen) wurde durch Zählen von YOPRO-1-gefärbten apoptotischen Zellen unter Verwendung eines Mikroskops, ausgestattet mit einer Quecksilberlampe und einer Fluoreszenzeinheit in Kombination mit einem Computer-unterstützten Morphometriesystem, quantifiziert.
Für die Amplifizierung der aSMase waren die Primer und die Bedingungen wie folgt: 5'-[…]-3' (vorwärts) und 5'-[…]-3', 94°C, 60°C, 72°C, jeweils 1 min, 40 Zyklen (Sequenzanalyse des gereinigten PCR-Produkts durch das Deutsche Krebsforschungszentrum, Heidelberg, BR Deutschland, bestätigte die Amplifizierung des erwarteten aSMase-Fragments).

sauren Sphingomyelinase = target: T1, sauren Sphingomyelinase (Homo sapiens, UniProt P17405); test: SMase inhibition in cells (activity in cell lysates, BODIPY-FL-C5-sphingomyelin, HPLC); conditions: for IC50: human macrophages pretreated 30 min with compound, then 2 h oxidised LDL (27 µg/ml), lysate activity at pH 5,0, read-out: Hemmung der sauren Sphingomyelinase (Zellen) (IC-50)
T1 construct: endogenous in cells; host or cells: human macrophages (treated with compound, then oxidised LDL; lysed, supernatant assayed)
T1 sequence (P17405 47-631): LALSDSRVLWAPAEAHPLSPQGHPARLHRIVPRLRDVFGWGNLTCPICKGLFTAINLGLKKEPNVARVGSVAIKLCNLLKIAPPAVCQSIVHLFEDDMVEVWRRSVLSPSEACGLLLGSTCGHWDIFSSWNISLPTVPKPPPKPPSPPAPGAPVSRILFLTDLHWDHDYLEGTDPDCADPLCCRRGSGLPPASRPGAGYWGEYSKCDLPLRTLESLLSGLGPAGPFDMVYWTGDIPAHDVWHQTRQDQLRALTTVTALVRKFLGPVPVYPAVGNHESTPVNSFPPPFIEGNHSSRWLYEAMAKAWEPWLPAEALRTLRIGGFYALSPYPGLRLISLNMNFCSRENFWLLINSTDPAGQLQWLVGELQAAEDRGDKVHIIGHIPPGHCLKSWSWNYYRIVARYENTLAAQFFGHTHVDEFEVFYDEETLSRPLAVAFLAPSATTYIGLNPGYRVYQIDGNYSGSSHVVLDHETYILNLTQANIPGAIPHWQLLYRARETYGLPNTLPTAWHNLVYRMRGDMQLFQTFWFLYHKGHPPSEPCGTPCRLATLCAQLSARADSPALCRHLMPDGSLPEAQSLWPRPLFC

Mφ [2] = test: Apoptosis in Mφ induced by C6-ceramide or mmLDL (YOPRO-1 staining / TUNEL); conditions: for programmierten Zelltod in Mφ: mmLDL or ceramide
Experimental: as §1, §2

Ceramid = test: Ceramide concentration in cells (diacylglycerol-kinase phosphorylation); conditions: Mφ, mmLDL or ceramide
Source text: Die Ceramidkonzentrationen in den Zellen wurden nach Diacylglycerolkatalysierter Phosphorylierung, wie in Kinscherf et al. (FEBS, 405, 55 (1997)) und Dressler et al. (J. Biol. Chem. 265, 14917 (1990)) beschrieben, bestimmt.
Figur 1 zeigt in einem Diagramm die Phospho-Ceramid-Konzentration (cpm/spot) nach ox. LDL-Stimulierung zum einen ohne (ox) und zum anderen unter Zugabe entsprechender Verbindungen mit der allgemeinen Formel (I), die in den erfindungsgemäßen pharmazeutischen Zusammensetzungen enthalten sein können, nämlich [2-(3,4-Dimethoxyphenyl)-ethyl]-[3-(2-chlorphenothiazin-10-yl)-N-propyl]-methylamin (V3) und [3-(Carbazol-9-yl)-N-propyl]-[2-(4-methoxyphenyl)-ethyl]methylamin (V6). Ferner ist auch die Phospho-Ceramid-Konzentration in Folge der Stimulation durch TNF angegeben.

IC50 (Mφ [1]) | IC50 (sauren Sphingomyelinase) | Compound | also measured
4 µM | – | 10-(3-{4-[2-(3,-Dimethoxyphenyl)-ethyl]-3,5-dimethylpiperazin-1-yl}-propyl)-9H-carbazol [V42] | –
0.5 µM | – | COc1ccc(Cn2c(=O)c3ccccc3n(Cc3ccc(OC)cc3)c2=O)cc1 [1,3-Bis-(4-methoxybenzyl)-1H-chinazolin-2,4-dion] | –
3 µM | – | COc1ccc(Cn2c(=O)[nH]c3ccccc3c2=O)cc1 [3-(4-Methoxybenzyl)-1H-chinazolin-2,4-dion] | –
1 µM | – | COc1ccc(Cn2c3ccccc3c3ccccc32)cc1 [9-(4-Methoxybenzyl-9H-carbazol)] | –
2 µM | 6 µM | COc1ccc(CCN(C)CCCN2c3ccccc3Sc3ccc(Cl)cc32)cc1OC [V3, [2-(3,4-Dimethoxyphenyl)-ethyl]-[3-(2-chlorphenothiazin-10-yl)-N-propyl]-methylamin] | mmLDL- oder Ceramid-induzierte Enzyminduktion (aSMase): inhibieren; programmierten Zelltod in Mφ (Mφ [2]): vermindert; Stimulierung der Ceramidbildung (Ceramid): inhibieren
5 µM | – | COc1ccc(CCN(C)CCCN2c3ccccc3Sc3ccc(Cl)cc32)cc1 [V4, [2-(4-Methoxyphenyl)-ethyl]-[3-(2-chlorphenothiazin-10-yl)-N-propyl]-methylamin] | –
– | 8 µM | COc1ccc(CCN(C)CCCn2c3ccccc3c3ccccc32)cc1OC [V5, [3-(Carbazol-9-yl)-N-propyl]-[2-(3,4-dimethoxyphenyl)-ethyl]methylamin] | –
– | 16 µM | COc1ccc(CCN(C)CCN2c3ccccc3CCc3ccccc32)cc1 [V16, [2-(10,11-Dihydro-dibenzo[b,f]azepin-5-yl)-N-ethyl]-[2-(4-methoxyphenyl)-ethyl]methylamin] | –
– | 10 µM | COc1ccc(CCNCCCNC2c3ccccc3CCc3ccccc32)cc1 [V22, N-(5H-Dibenzo[a,d]cycloheptan-5-yl)-N'-[2-(4-methoxyphenyl)-ethyl]-propylendiamin] | –
– | 8 µM | COc1ccc(CCN(C)CCn2c3ccccc3c3ccccc32)cc1 [V23, [2-(Carbazol-9-yl)-N-ethyl]-[2-(4-methoxyphenyl)-ethyl]methylamin] | –
1.5 µM | 20 µM | COc1ccc(CCN(C)CCC=C2c3ccccc3CCc3ccccc32)cc1 [V31, [3-(10,11-Dihydro-dibenzo[a,d]cyclohepten-5-yliden)-propyl]-[2-(4-methoxyphenyl)-ethyl]methylamin] | –
18 µM | – | COc1ccc(CCN(C)C(F)(F)C(F)(F)C(F)(F)C(F)(F)n2c3ccccc3c3ccccc32)cc1 [V32, (4-Carbazol-9-yl-1,1,2,2,3,3,4,4-octafluorbutyl)-[2-(4-methoxyphenyl)-ethyl]-methylamin] | –
6 µM | – | COc1ccc(CCN(C)CCCN(c2ccccc2)c2ccccc2)cc1OC [V35, N-[2-(3,4-Dimethoxyphenyl)-ethyl]-N-methyl-N',N'-diphenylpropan-1,3-diamin] | –
1 µM | – | COc1ccc(CCN2C(C)CN(CCCN3c4ccccc4Oc4ccccc43)CC2C)cc1 (stereo not drawn) [V36, 10-(3-{4-[2-(4-Methoxyphenyl)-ethyl]-3,5-dimethylpiperazin-1-yl}-propyl)-10H-phenoxazin] | –
2.5 µM | – | COc1ccc(CCN(C)CCCN2c3ccccc3Oc3ccccc32)cc1OC [V37, [2-(3,4-Dimethoxyphenyl)-ethyl]-methyl-(phenoxazin-10-yl-propyl)amin] | –
6 µM | – | COc1ccc(CCN(C)CCC=C2c3ccccc3CCc3ccccc32)cc1OC [V38, [3-(10,11-Dihydro-dibenzo[a,d]cyclohepten-5-yliden)-propyl]-[2-(3,4-dimethoxyphenyl)-ethyl]methylamin] | –
7 µM | – | COc1ccc(CCN2CCCN(C3c4ccccc4CCc4ccccc43)C2)cc1OC [V41, N-(10,11-Dihydro-5H-dibenzo[a,d]cyclohepten-5-yl)-N'-[2-(3,4-dimethoxyphenyl)-ethyl]-hexahydropyrimidin] | –

Compound | IC50 (Mφ [1]) | IC50 (sauren Sphingomyelinase) | also measured
COc1ccc(CCN(C)CCCn2c3ccccc3c3ccccc32)cc1 [V6, [3-(Carbazol-9-yl)-N-propyl]-[2-(4-methoxyphenyl)-ethyl]methylamin] | – | 9 µM | mmLDL- oder Ceramid-induzierte Enzyminduktion (aSMase): inhibieren; Ceramid-vermittelte aSMase-Transkription (aSMase; pretreatment of Mφ (2 µM, 30 min), C6-Ceramid (10 µM)): verhinderte; Aktivierung des Enzyms (sauren Sphingomyelinase; ceramide-treated Mφ, measured in cell lysates): verhinderte; durch mmLDL (27 µg/ml) initiierten Anstieg der aSMase-Aktivität in Zelllysaten (sauren Sphingomyelinase; pretreatment of Mφ, mmLDL 27 µg/ml, basal activity 2,18 nmol/h x mg): vollständig verhindert; programmierten Zelltod in Mφ (Mφ [2]): vermindert; Induktion von Apoptose (Mφ [2]; pretreatment of Mφ (2 µM, 30 min), C6-Ceramid (10 µM), YOPRO-1): verhinderte; Stimulierung der Ceramidbildung (Ceramid): inhibieren
COc1ccc(CCN(C)CCN2c3ccccc3CCc3ccccc32)cc1OC [V15, [2-(10,11-Dihydro-dibenzo[b,f]azepin-5-yl)-N-ethyl]-[2-(3,4-dimethoxyphenyl)-ethyl]methylamin] | – | 14 µM | –
COc1ccc(CCN2CCN(CCn3c4ccccc4c4ccccc43)CC2)cc1 [V18, N-[2-(Carbazol-9-yl)-N-ethyl]-N'-[2-(4-methoxyphenyl)-ethyl]piperazin] | – | 33 µM | –
COc1ccc(CCN(C)CCCN(c2ccccc2)c2ccccc2)cc1 [V34, N-[2-(4-Methoxyphenyl)-ethyl]-N-methyl-N',N'-diphenylpropan-1,3-diamin] | 3 µM | – | –
